From patent publication US20230391776A1, “AMIDE OXAZOLE COMPOUND” (MEDSHINE DISCOVERY INC., priority 2020, published 2023)

Key:
[1] = biological target: T1, human IRAK4 (Homo sapiens, UniProt Q9NWZ3); assay: In vitro IRAK4 kinase activity, 33P isotope-labeled kinase assay; format: biochemical
T1 construct: purchased Reaction Biology Corp
T1 sequence (Q9NWZ3 1-460): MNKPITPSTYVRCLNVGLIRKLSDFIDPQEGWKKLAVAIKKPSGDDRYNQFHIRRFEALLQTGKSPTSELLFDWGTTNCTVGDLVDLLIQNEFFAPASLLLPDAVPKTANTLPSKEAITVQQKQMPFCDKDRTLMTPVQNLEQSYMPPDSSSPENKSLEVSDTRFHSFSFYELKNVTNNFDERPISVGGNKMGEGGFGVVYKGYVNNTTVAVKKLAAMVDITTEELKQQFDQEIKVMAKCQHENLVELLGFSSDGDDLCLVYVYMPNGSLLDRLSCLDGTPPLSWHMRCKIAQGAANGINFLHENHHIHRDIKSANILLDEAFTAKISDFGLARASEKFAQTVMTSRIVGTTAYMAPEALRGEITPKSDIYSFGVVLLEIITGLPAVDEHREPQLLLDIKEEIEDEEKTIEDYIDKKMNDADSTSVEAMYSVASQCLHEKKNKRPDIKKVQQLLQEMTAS
Method: The IC50 values were determined using ^33P isotope-labeled kinase activity assay (Reaction Biology Corp) to evaluate the inhibitory ability of the tested compounds on human IRAK4.
(§1) Buffer conditions: 20 mM Hepes (pH 7.5), 10 mM MgCl2, 1 mM EGTA, 0.02% Brij35, 0.02 mg/mL BSA, 0.1 mM Na3VO4, 2 mM DTT, 1% DMSO.
Test procedure: At room temperature, the tested compound was dissolved in DMSO and a 10 mM solution was prepared for use. The substrate was dissolved in a newly prepared buffer solution, and the tested IRAK4 kinase was added thereto and mixed evenly. The DMSO solution dissolved with the tested compound was added to the above mixed evenly reaction solution using acoustic technique (Echo 550). After incubation for 15 minutes, ^33P-ATP was added to initiate the reaction. The reaction was carried out at room temperature for 120 minutes, and the reaction mixture was dropped on P81 ion exchange filter paper (Whatman #3698-915). The filter paper was washed repeatedly with 0.75% phosphoric acid solution, and the radioactivity of phosphorylated substrate residues on the filter paper was determined. The kinase activity data were expressed by comparing the kinase activity of the group containing the tested compound with the kinase activity of the blank group (only containing DMSO), and the IC50 value was obtained by curve fitting by Prism4 software (GraphPad), the experimental results were shown in Table 2.

[2] = tested on: TMD-8 human diffuse large B lymphoma cells; assay: TMD-8 cell proliferation (Cell Titer Glo); format: cell-based; details: TMD8, 72 hours
Method: The tumor cell lines OCI-LY10 and TMD-8 were used to detect the effect of the compound of the disclosure on inhibiting tumor cell proliferation in vitro.
TMD-8 human diffuse large B lymphoma cells, from Nanjing Cobioer Biotechnology Co., Ltd
The compound was diluted with DMSO to a final concentration of 10 mM. The compound was freshly prepared and ready for use.
a) Logarithmic growth period cells were collected, counted, resuspended with complete culture medium, the cell concentration was adjusted to an appropriate concentration (determined according to the results of cell density optimization test), inoculated on 96-well plates, and 100 μL of cell suspension was added to each well. Cells were incubated in an incubator with 37° C., 100% relative humidity and 5% CO2 for 24 hours.
b) The compound to be tested was diluted to 50 μM with culture medium and then gradient diluted for 8 times. Cells were added with 25 μL/well. The final concentrations of the compound were from […], 3-fold gradient dilution, with a total of 9 concentration points.
c) Cells were incubated in an incubator with 37° C., 100% relative humidity and 5% CO2 for 72 hours;
d) 60 μL of CTG test reagent was added to the culture medium.
e) Shaked fully and reacted in the dark for 10 min. Luminescence was measured on ENVISION and the inhibition rate was calculated.
Cell growth inhibition rate %=[(RLUv−RLUs)/(RLUv−RLUb)]×100%

[3] = Pharmacokinetic study of mice; format: in vivo; details: mouse, plasma, CD-1 male mice; for Vd / AUC(0-t) / clearance / half-life: IV 3 mg/kg; for Vd: read-out: Apparent volume of distribution Vdss; for AUC(0-t): read-out: Area under the plasma concentration-time curve AUC0-24h; for clearance: read-out: Clearance rate CL; for half-life: read-out: Half-life T1/2 (converted); for bioavailability / AUC / Cmax / Tmax: PO 10 mg/kg; for AUC: read-out: Area under the plasma concentration-time curve AUC; for Cmax: read-out: Peak concentration Cmax; for Tmax: read-out: Peak time Tmax
Method: The purpose of this experiment was to study the pharmacokinetics of the test compound in the plasma of CD-1 male mice after intravenous injection and oral administration.
Intravenous injection group: the tested compound was weighed and dissolved with 5% DMSO/10% Solutol/85% H2O, and the pH was adjusted to 4-5 with 6M hydrochloric acid, and a clear solution of 1.5 mg/mL was prepared by vortex, which was filtered by 0.22 m microporous membrane for later use. CD-1 male mice from 6 to 10 weeks old were selected and the test compound solution was injected intravenously at a dose of 3 mg/kg. The sample collection time was: 0.083, 0.25, 0.5, 1, 2, 4, 6, 8, 24 hours.
Oral administration group: the tested compound was weighed and dissolved with 5% DMSO/10% Solutol/85% H2O, the pH was adjusted to 3-4 with 6M hydrochloric acid, and a clear solution of 2.0 mg/mL was prepared by vortex for later use. CD-1 male mice from 6 to 10 weeks old were selected and the test compound was administered orally at a dose of 10 mg/kg. The sample collection time was: 0.25, 0.5, 1, 2, 4, 6, 8, 10, 24 hours.
Approximately 50 μL of whole blood was collected through the jugular vein at each time point for plasma preparation for concentration determination by high performance liquid chromatography-tandem mass spectrometry (LC-MS/MS). All animals were euthanized by CO2 anesthesia after collecting PK samples at the last time point. The non-atrioventricular model of WinnonLin™ Version 6.3 (Pharsight, Mountain View, CA) pharmacokinetic software was used to process the plasma concentration, and the pharmacokinetic parameters were calculated by linear logarithmic trapezoid method.

[4] = biological target: T2, human BTK (Homo sapiens, UniProt Q06187); assay: In vitro BTK kinase activity, 33P isotope-labeled kinase assay; format: biochemical
T2 construct: purchased Reaction Biology Corp
Method: The IC50 values were determined using ^33P isotope-labeled kinase activity assay (Reaction Biology Corp) to evaluate the inhibitory ability of the tested compounds on human BTK.
as §1
Test procedure: At room temperature, the tested compound was dissolved in DMSO and a 10 mM solution was prepared for use. The substrate was dissolved in a newly prepared buffer solution, and the BTK kinase was added thereto and mixed evenly. The compound dissolved in DMSO was added to the kinase reaction mixture through Echo 550 (Acoustic technology; Nanoliter range). After incubation for 20 minutes at room temperature, ^33P-ATP was added to initiate the reaction. The reaction was carried out at room temperature for 2 hours, and the radioactivity of the reaction solution drop was detected by filtration-binding method with P81 ion exchange filter paper. The kinase activity data were expressed by comparing the kinase activity of the group containing the tested compound with the kinase activity of the blank group (only containing DMSO), and the IC50 value was obtained by curve fitting by Prism4 software (GraphPad), the experimental results were shown in Table 3.

T2 sequence (Q06187 whole entry): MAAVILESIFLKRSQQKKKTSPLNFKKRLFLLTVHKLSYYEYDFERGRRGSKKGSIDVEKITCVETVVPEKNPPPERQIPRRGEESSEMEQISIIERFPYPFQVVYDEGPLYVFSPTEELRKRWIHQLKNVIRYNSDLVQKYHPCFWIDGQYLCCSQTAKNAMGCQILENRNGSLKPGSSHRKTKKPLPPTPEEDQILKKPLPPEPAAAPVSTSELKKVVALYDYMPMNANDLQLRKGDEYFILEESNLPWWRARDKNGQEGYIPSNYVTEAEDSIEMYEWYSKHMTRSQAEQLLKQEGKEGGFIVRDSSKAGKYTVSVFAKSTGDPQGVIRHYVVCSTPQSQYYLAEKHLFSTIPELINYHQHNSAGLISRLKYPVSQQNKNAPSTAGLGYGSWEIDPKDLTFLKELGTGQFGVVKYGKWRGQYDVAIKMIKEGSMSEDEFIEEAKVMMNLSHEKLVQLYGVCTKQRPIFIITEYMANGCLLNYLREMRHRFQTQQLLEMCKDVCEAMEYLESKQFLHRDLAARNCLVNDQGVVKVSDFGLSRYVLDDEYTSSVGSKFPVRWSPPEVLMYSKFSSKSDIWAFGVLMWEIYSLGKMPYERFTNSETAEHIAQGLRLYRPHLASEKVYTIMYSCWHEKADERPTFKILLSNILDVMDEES

Structure (SMILES)	IC50 [1]	IC50 [2]	Vd [3]	AUC(0-t) [3]	clearance [3]	half-life [3]	bioavailability [3]	AUC [3]	Cmax [3]	Tmax [3]	IC50 [4]
Cc1cc(-c2nc(C(=O)Nc3cn4cc(C(C)(C)O)nc4cc3-c3ccccc3)co2)ccn1 [WX009]	0.9 nM	37 nM	1.5 L/kg	17.9 µM·h	5.9 mL/min/kg	8.1 h	78%	48 µM·h	17.8 µM	0.5 h	20.1 nM
CC(C)(O)c1cn2cc(NC(=O)c3coc(-c4ccnc(N)c4)n3)c(-c3ccccc3)cc2n1 [WX017]	0.1 nM	10 nM	0.5 L/kg	7.67 µM·h	15.1 mL/min/kg	2.3 h	41%	10.4 µM·h	6.52 µM	0.8 h	5.2 nM
CC(C)(O)c1cn2cc(NC(=O)c3coc(-c4ccnc(N)c4F)n3)c(-c3ccccc3)cc2n1 [WX027]	0.1 nM	32.2 nM	0.8 L/kg	3.77 µM·h	28.2 mL/min/kg	1.9 h	64%	8.08 µM·h	4.93 µM	0.3 h	2.9 nM
